Experimental data: patent US5767126A, “Alzheimer's disease treatment with tacrine metabolites” (priority 1991, dated 1998)

Tests used:
acetylcholinesterase [1] = biological target: T1, acetylcholinesterase (Homo sapiens, UniProt P22303); experiment: Acetylcholinesterase inhibition, photometric method of Ellman; format: biochemical; details: pI is a logarithmic measure of capacity to prevent the action of acetylcholinesterase, read-out: Cholinesterase inhibition pI (converted)
acetylcholinesterase [2] = biological target: T1, acetylcholinesterase; details: figure obtained from the study by P. N. Kaul (J. Pharm. Pharmacol. 1962); cited from earlier work

T1 sequence (P22303 32-614): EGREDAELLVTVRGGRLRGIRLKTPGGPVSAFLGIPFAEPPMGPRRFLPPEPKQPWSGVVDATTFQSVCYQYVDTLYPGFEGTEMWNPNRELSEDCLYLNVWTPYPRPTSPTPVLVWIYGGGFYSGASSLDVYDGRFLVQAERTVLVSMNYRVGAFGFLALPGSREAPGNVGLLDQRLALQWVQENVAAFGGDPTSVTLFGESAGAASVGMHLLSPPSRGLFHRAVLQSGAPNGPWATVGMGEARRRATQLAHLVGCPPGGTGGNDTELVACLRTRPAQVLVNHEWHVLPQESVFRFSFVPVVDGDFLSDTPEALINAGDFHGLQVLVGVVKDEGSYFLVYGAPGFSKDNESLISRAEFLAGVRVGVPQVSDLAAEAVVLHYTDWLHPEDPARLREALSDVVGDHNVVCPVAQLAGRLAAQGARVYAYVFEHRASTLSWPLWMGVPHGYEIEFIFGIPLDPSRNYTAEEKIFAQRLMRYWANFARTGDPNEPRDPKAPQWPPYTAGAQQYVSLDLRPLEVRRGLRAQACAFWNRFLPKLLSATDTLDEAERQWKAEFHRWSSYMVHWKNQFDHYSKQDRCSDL

| Compound | IC50 (acetylcholinesterase [1]) [µM] | Cholinesterase inhibition pI (acetylcholinesterase [2]) |
| --- | --- | --- |
| Nc1c2c(nc3ccccc13)C(O)C(O)CC2 (stereo not drawn) [9-amino-1,2,3,4-tetrahydroacridin-3,4-diol] | 0.2 | – |
| Nc1c2c(nc3ccccc13)C=CC(O)C2O (stereo not drawn) [9-amino-1,2-dihydroacridin-1,2-diol] | 0.631 | – |
| Nc1c2c(nc3ccccc13)C(O)C(O)C(O)C2O (stereo not drawn) [9-amino-1,2,3,4-tetrahydroacridin 1,2,3,4-tetraol] | 0.158 | – |
| Nc1c2ccccc2nc2c(O)cc(O)cc12 [9-amino-2,4-dihydroxyacridine] | 0.158 | – |
| Nc1c2ccccc2nc2c(O)ccc(O)c12 [9-amino-1,4-dihydroxyacridine] | 0.316 | – |
| Nc1c2c(nc3ccccc13)CCC(O)C2O (stereo not drawn) [9-amino-1,2,3,4-tetrahydroacridin-1,2-diol] | 1.26 | – |
| Nc1c2c(nc3ccccc13)C(O)C(O)C(O)C2 (stereo not drawn) [9-amino-1,2,3,4-tetrahydroacridin-2,3,4-triol] | 0.126 | – |
| Nc1c2c(nc3ccccc13)C(=O)CC(O)C2O (stereo not drawn) [9-amino-1,2-dihydroacridin-1,2-diol 4(3H)-one] | 0.501 | – |
| Nc1ccnc2ccccc12 [4-aminoquinoline] | – | 4.3 |
